These are literature values, as cited in patent US11005050B2, “Metal complexes” (Merck Patent GmbH, priority 2014, dated 2021).

For this data set the following is noted: prior-art statement; for example in aromatic hydrocarbons or chlorobenzene.

`c1cnc2c(c1)ccc1ccc[c]([Ir]([c]3cccc4ccc5cccnc5c34)[c]3cccc4ccc5cccnc5c34)c12` [tris(benzo[h]quinoline)iridium(III)]: the “solubility in common organic solvents” value was “virtually insoluble”.
